Experimental data as given in patent US7135292B2, “Analysis and modification of gene expression in marine invertebrate cells” (Harbor Branch Oceanographic Institution, Inc., priority 2002, dated 2006).

System: Axinella corrugata cell cultures
Experiment: Human-sequence microarray (Gene Filters) analysis of gene expression, PHA-treated vs untreated sponge cell cultures
Assay type: cell-based
Conditions: PHA treated/untreated, 12 h
From the text: Sponge Cells. Cells were obtained from cryopreserved stocks at Harbor Branch Oceanographic Institution. All cells were derived from Axinella corrugata specimens collected in the waters of Florida, the Bahamas, and the Caribbean Sea, and were cryopreserved according to Pomponi et al. (Pomponi et al. 1997b supra). This sponge is relatively common and easy to collect, amenable to culture efforts, and produces the bioactive compound, stevensine, in vitro (Pomponi et al. 1997b supra). Enriched fractions of dissociated sponge cells were prepared, cryopreserved, and thawed according to previously published methods (Pomponi et al. 1997b supra). Cells were incubated at 22–25° C. in a growth medium consisting of a modified and supplemented commercial formulation (Willoughby and Pomponi 2000 supra). The length of the incubation period was based on my unpublished observation of elevated DNA and protein contents (9%, P=0.034, and 9%, P=0.038, respectively) in PHA-treated cultures, according to fluorescent assays of 6 replicate comparisons (Willoughby and Pomponi 2000 supra). Since the effects were observed between 6 and 18 hours after treatment, cells were cultured for 12-hour periods representing the center point of the period of observed changes. Two sets of cultures were incubated with approximately 2×10^8 cells per T-75 flask—a control set and an experimental set treated with 1.5% phytohemagglutinin (PHA) (Life Technologies, M-form).
RNA Isolation. RNA isolation was performed on unrinsed, pelleted cells. Pellets were quickly frozen in a dry ice alcohol bath and stored at −70° C. until RNA isolation. The Qiagen RNeasy® protocol was used, with the following modifications. Samples were disrupted with a micropestle or homogenized by the rotor-stator method, using twice the recommended volume of lysis solution. Prior to column loading, samples were centrifuged through a Qiashredder® column to complete homogenization and remove insoluble material. Supernatant was collected for use in the rest of the protocol. During the first wash step, samples were incubated on the column with DNase 1 (Qiagen or Ambion) for 15 minutes. After the final wash, samples were incubated on the column with the RNase free elution water for 15 minutes prior to elution. Sub-samples were diluted 20× and quantified on a Genequant® spectrophotometer.
cDNA Labeling. Sub-samples of the isolated total RNA (8 μl) were primed with oligo dT (10–20 mer) (Research Genetics, Inc.) for 10 minutes at 70° C., then briefly chilled on ice, followed by addition of 2 volumes of RT cocktail based upon the Life Technologies Superscript II® protocol (containing dATP, dGTP, dTTP, and α-^33P dCTP [NEN Easy Tides®, 3000 Ci/mmol]). The mixture was incubated for 90 minutes at 37° C., and diluted to 100 μl for purification on a Bio-Spin column (Boi-Rad) according to the Gene Filter® (Research Genetics, Inc.) recommended protocol. The resultant labeled probes were then denatured for 3 minutes in a boiling water bath prior to incorporation into the hybridization solution.
Microarrays. Research Genetics Gene Filters®, version 211, were employed in this study. These microarrays feature over 4000 distinct sequence-verified genes spotted onto a 5×7 cm nylon membrane. The DNA at each spot represents approximately 1 kb from the 3′ end of the gene. The microarrays also include spots of total genomic DNA (see FIG. 5). The 211 series is constructed from human sequences. A cross-referenced database listing of all the genes represented on the array is available at http://www.resgen.com. The 2 genes referenced in this work carry the I.M.A.G.E. Consortium (Lennon, G. G., C. Auffray, M. Polymeropoulos and M. B. Soares 1996, Genomics 33:151–152), Clone IDs 81408 (calcineurin B) and 858292 (cdc10).
Hybridization. […]

phytohemagglutinin [PHA]
Ratio, MHC class II DQ-beta associated with DR2, DQw1 protein (No. 1): 0.492 | Ratio, Collagen, type II, alpha 1 (primary osteoarthritis, spondyloepiphyseal dysplasia, congenital) (No. 2): 0.384 | Ratio, Hemoglobin, alpha 1 (No. 3): 0.157 | Ratio, Heat shock 60 kD protein 1 (chaperonin) (No. 4): 2.443 | Ratio, Interleukin 7 receptor (No. 5): 0.156 | Ratio, Cytochrome P450, subfamily IVA, polypeptide 11 (No. 6): 0.310 | Ratio, Human metallothionein I-B gene (No. 7): 0.388 | Ratio, Homo sapiens NF-E2 protein (NF-E2) mRNA, complete cds (No. 8): 2.223 | Ratio, Tissue inhibitor of metalloproteinase 1 (erythroid potentiating activity, collagenase inhibitor) (No. 9): 0.252 | Ratio, Adenylate kinase 1 (No. 10): 0.055 | Ratio, Oxytocin receptor (No. 11): 0.084 | Ratio, Homo sapiens mRNA for epiregulin, complete cds (No. 12): 0.101 | Ratio, Collagen, type V, alpha (No. 13): 0.137 | Ratio, MpV17 transgene, murine homolog, glomerulosclerosis (No. 14): 0.319 | Ratio, Tyrosine 3-monooxygenase/tryptophan 5-monooxygenase activation protein, zeta polypeptide (No. 15): 9.835 | Ratio, Von Hippel-Lindau syndrome (No. 16): 2.707 | Ratio, Homo sapiens TNF-alpha stimulated ABC protein (ABC50) mRNA, complete cds (No. 17): 3.865 | Ratio, Human brain mRNA for photolyase homolog, complete cds (No. 18): 2.486 | Ratio, Human BTG2 (BTG2) mRNA, complete cds (No. 19): 2.431 | Ratio, Membrane metallo-endopeptidase (neutral endopeptidase, enkephalinase, CALLA, CD10) (No. 20): 0.169 | Ratio, Calcineurin B (No. 21): 0.318 | Ratio, Cell division cycle 10 (homologous to CDC10 of S. cerevisiae) (No. 22): 2.302 | Ratio, Human renal cell carcinoma antigen RAGE-1 mRNA, complete putative cds (No. 23): 0.477 | Ratio, Homo sapiens putative OSP like protein mRNA, partial cds (No. 24): 0.491 | Ratio, H. sapiens mRNA for translin associated protein X (No. 25): 2.631 | Ratio, H. sapiens mRNA for phosphate cyclase (No. 26): 0.395 | Ratio, JNK activating kinase 1 (No. 27): 0.170 | Ratio, Collagen, type IX, alpha 3 (No. 28): 47.686 | Ratio, Non-catalytic region of tyrosine kinase (No. 29): 0.233 | Ratio, Triosephosphate isomerase 1 (No. 30): 0.357 | Ratio, Calreticulin Precursor (No. 31): 12.868 | Ratio, Human transportin (TRN) mRNA, complete cds (No. 32): 3.328 | Ratio, Fanconi anemia complementation group C (No. 33): 0.342 | Ratio, Zinc finger protein basonuclin (No. 34): 0.417 | Ratio, Autosomal dominant polycystic kidney disease type II (No. 35): 0.224 | Ratio, Double-stranded RNA adenosine deaminase (No. 36): 0.456 | Ratio, Dual specificity protein phosphatase PAC-1 (No. 37): 0.175 | Ratio, Homo sapiens Tax interaction protein 33 mRNA, partial cds (No. 38): 0.426 | Ratio, H. sapiens mRNA for M-phase phosphoprotein, mpp5 (No. 39): 2.970 | Ratio, Nucleolysin TIA-1 (No. 40): 0.430 | Ratio, Homo sapiens mRNA for ISLR, complete cds (No. 41): 12.597 | Ratio, H. sapiens mRNA for M130 antigen (No. 42): 0.443 | Ratio, Human tRNA-guanine transglycosylase mRNA, complete cds (No. 43): 0.213 | Ratio, Homo sapiens mRNA for vesicle associated membrane protein 2 (VAMP2) (No. 44): 3.925 | Ratio, Erythrocyte membrane protein band 4.9 (dematin) (No. 45): 0.408 | Ratio, 6-Pyruvol tetrahydrobiopterin synthase (No. 46): 0.440 | Ratio, Villin (No. 47): 0.008 | Ratio, Multidrug reistance protein 1 (No. 48): 3.272 | Ratio, Human histone H2B.1 mRNA, 3′ end (No. 49): 0.247 | Ratio, Human heregulin-betal gene, complete cds (No. 50): 5.582 | Ratio, Amyloid P component, serum (No. 51): 3.994 | Ratio, Alternative guanine nucleotide-binding regulatory protein (G) alpha-inhibitory-subunit (No. 52): 0.462 | Ratio, Ribosomal protein S6 kinase, 90 kD, polypeptide 2 (No. 53): 0.252 | Ratio, Interleukin 15 receptor alpha chain (No. 54): 3.996 | Ratio, Cadherin 11 (OB-cadherin) (No. 55): 0.425
